According to patent US20110224229A1, “Novel Crystalline Form” (AstraZeneca AB, priority 2010, published 2011):
“Also recorded” adds a separate entry of the source.

Key:
[1] = Humidity interaction, Gravimetrical Vapour Sorption (GVS); format: physicochemical; settings: for hygroscopicity, defined as the water uptake by a dried sample when the relative humidity is increased from 0% to 80%: 0% to 80% RH at 25° C.; for hygroscopicity (in words) / water uptake following exposure to 80% relative humidity (RH): GVS, 80% RH
Procedure: The gravimetric responses of test samples to changes in humidity were investigated using a TGA 5000 (TA Instruments) Gravimetrical Vapour Sorption (GVS). The temperature was held at 25° C. throughout the experiments. The relative humidity (RH) was raised in steps (of 5 or 10%) up to 90% RH and lowered back to 0% RH in two cycles. Each level of RH was held until the equilibrium condition (sample weight change<0.0005 wt % per 10 minutes) was reached. 5-10 mg of the test sample was placed in the cup and evaluated. The hygroscopicity was calculated as the relative change in weight of the sample between 0% RH at the start of the second cycle and 80% RH during the increase of humidity in the second cycle.
The hygroscopicity of a sample is dependent on factors in addition to the inherent properties of the pure solid form itself, for example the purity and the crystallinity of the sample will have some impact on the result.

[2] = Slurrying in water or solvents, hydrate/solvate formation; format: physicochemical
[3] = target: T1, Human Neutrophil Elastase (HNE) (Homo sapiens, UniProt P08246); assay: Human Neutrophil Elastase Quenched-FRET Assay; format: biochemical; settings: compound dissolved in DMSO; n=7; read-out: IC50 value for inhibition of human neutrophil elastase activity
T1 construct: Human Neutrophil Elastase (HNE) purified from serum; purchased Calbiochem 324681; host or cells: natural source
T1 sequence (P08246 30-267): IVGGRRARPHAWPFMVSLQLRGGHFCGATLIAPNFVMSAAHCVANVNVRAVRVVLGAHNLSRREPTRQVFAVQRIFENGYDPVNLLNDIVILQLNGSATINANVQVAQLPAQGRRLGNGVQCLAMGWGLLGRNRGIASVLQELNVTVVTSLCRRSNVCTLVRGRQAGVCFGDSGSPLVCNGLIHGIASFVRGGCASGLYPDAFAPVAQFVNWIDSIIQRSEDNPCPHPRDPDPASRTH
Procedure: The assay uses Human Neutrophil Elastase (HNE) purified from serum (Calbiochem art. 324681; Ref. Baugh, R. J. et al., 1976, Biochemistry. 15, 836-841). HNE was stored in 50 mM sodium acetate (NaOAc), 500 mM sodium chloride (NaCl), pH 5.5 with added 50% glycerol at −20° C. The protease substrate used was Elastase Substrate V Fluorogenic, MeOSuc-AAPV-AMC (Calbiochem art. 324740; Ref. Castillo, M. J. et al., 1979, Anal. Biochem. 99, 53-64). The substrate was stored in dimethyl sulfoxide (DMSO) at −20° C. The assay additions were as follows: Test compounds and controls were added to black 96-well flat-bottom plates (Greiner 655076), 1.0 μL in 100% DMSO, followed by 30 μL HNE in assay buffer with 0.01% Triton (trade mark) X-100 detergent. The assay buffer constitution was: 100 mM Tris(hydroxymethyl)aminomethane (TRIS) (pH 7.5) and 500 mM NaCl. The enzyme and the compounds were incubated at room temperature for 15 minutes. Then 30 μl substrate in assay buffer was added. The assay was incubated for 90 minutes at room temperature. The concentrations of HNE enzyme and substrate during the incubation were 0.17 nM and 100 μM, respectively. […] Fluorescence was measured on a Wallac EnVision instrument at settings: Excitation 380 nm, Emission 460 nm. IC50 values were determined using Xlfit curve fitting using model 203.

hygroscopicity, defined as the water uptake by a dried sample when the relative humidity is increased from 0% to 80% [1]	water uptake following exposure to 80% relative humidity (RH) [1]	hydrate formation when slurried in water ([2]; slurried in water for 4 weeks)	IC50 [3]	SMILES	hygroscopicity (in words) [1]	solvate/hydrate formation when slurried in water, ethanol or acetonitrile ([2]; slurried in water, ethanol or acetonitrile, XRPD)
1.6 % (w/w)	about 1.6 % by weight			CCNC(=O)c1nc(-c2ccnn2-c2ccc(C#N)cc2)c(C)n(-c2cccc(C(F)(F)F)c2)c1=O [Compound (I) Form A, 6-[2-(4-Cyano-phenyl)-2H-pyrazol-3-yl]-5-methyl-3-oxo-4-(3-trifluoromethyl-phenyl)-3,4-dihydro-pyrazine-2-carboxylic acid ethylamide Form A]	slightly hygroscopic; also recorded: non-hygroscopic	forms variable, non-stoichiometric solvates with acetonitrile or ethanol and hydrates with water
0.08 % (w/w)	about 0.08 % by weight	did not form hydrates		CCNC(=O)c1nc(-c2ccnn2-c2ccc(C#N)cc2)c(C)n(-c2cccc(C(F)(F)F)c2)c1=O [Compound (I) Form B, 6-[2-(4-Cyano-phenyl)-2H-pyrazol-3-yl]-5-methyl-3-oxo-4-(3-trifluoromethyl-phenyl)-3,4-dihydro-pyrazine-2-carboxylic acid ethylamide Form B]	substantially non-hygroscopic	
			0.27 nM	CCNC(=O)c1nc(-c2ccnn2-c2ccc(C#N)cc2)c(C)n(-c2cccc(C(F)(F)F)c2)c1=O [Compound (I), 6-[2-(4-Cyano-phenyl)-2H-pyrazol-3-yl]-5-methyl-3-oxo-4-(3-trifluoromethyl-phenyl)-3,4-dihydro-pyrazine-2-carboxylic acid ethylamide]		
